{
  "source": "ChEMBL document CHEMBL4145536",
  "about": "“Design, synthesis and biological evaluation of novel bouchardatine analogs as potential inhibitors of adipogenesis/lipogenesis in 3T3-L1 adipocytes” (Eur J Med Chem, 2018)",
  "key": {"3T3-L1 [1]": {"system": "3T3-L1", "test": "Lipid lowering activity in mouse 3T3L1 cells assessed as decrease in triglyceride level at 10 uM for 6 days by oil red o-staining based microscopic assay", "type": "functional, cell-based"}, "HepG2 [2]": {"system": "HepG2", "test": "Cytotoxicity against human HepG2 cells assessed as decrease in cell viability after 24 hrs by MTT assay", "type": "cell-based", "settings": "HepG2, 24 h"}, "3T3-L1 [3]": {"system": "3T3-L1", "test": "Cytotoxicity against mouse 3T3L1 cells assessed as decrease in cell viability after 24 hrs by MTT assay", "type": "cell-based", "settings": "3T3-L1, 24 h"}, "HepG2 [4]": {"system": "HepG2", "test": "Lipid lowering activity in human HepG2 cells assessed as decrease in triglyceride level at 10 uM for 6 days in presence of oleic acid by oil red o-staining based assay relative to control", "type": "functional", "parameters": "scale not given: the % may be the effect or the level left"}, "[5]": {"test": "Solubility of the compound", "type": "physicochemical"}, "3T3-L1 [6]": {"system": "3T3-L1", "test": "Lipid lowering activity in mouse 3T3L1 cells assessed as decrease in triglyceride level at 10 uM for 6 days by oil red o-staining based assay relative to control", "type": "functional", "parameters": "scale not given: the % may be the effect or the level left"}, "Mus musculus [7]": {"organism": "Mus musculus", "test": "Activation of AMPK pathway in mouse 3T3L1 cells assessed as decrease in […] mRNA level measured on day 6 post treatment by RT-PCR method", "type": "cell-based"}, "Mus musculus [8]": {"organism": "Mus musculus", "test": "Activation of AMPK pathway in mouse 3T3L1 cells assessed as decrease in FAS mRNA level measured on day 6 post treatment by RT-PCR method", "type": "cell-based"}, "Mus musculus [9]": {"organism": "Mus musculus", "test": "Activation of AMPK pathway in mouse 3T3L1 cells assessed as decrease in C/EBPbeta mRNA level measured after 24 hrs by RT-PCR method", "type": "cell-based"}, "Mus musculus [10]": {"organism": "Mus musculus", "test": "Activation of AMPK pathway in mouse 3T3L1 cells assessed as decrease in C/EBPgamma mRNA level measured after 24 hrs by RT-PCR method", "type": "cell-based"}, "3T3-L1 [11]": {"system": "3T3-L1", "test": "Cell cycle arrest in mouse 3T3L1 cells assessed as accumulation at G0/G1 phase at 5 uM after 24 hrs by propidium iodide staining based FACS analysis (reference value: 48.7%)", "type": "functional"}, "3T3-L1 [12]": {"system": "3T3-L1", "test": "Inhibition of cell proliferation in mouse 3T3L1 cells assessed as reduction in adipogenic cocktail-induced mitotic cell clonal expansion at 1 to 10 uM after 72 hrs by hemocytometric method", "type": "functional, cell-based"}, "Mus musculus [13]": {"organism": "Mus musculus", "test": "Activation of AMPK pathway in mouse 3T3L1 cells assessed as decrease in PPARgamma mRNA level at 1 to 10 uM measured on day 3 post treatment by RT-PCR method", "type": "cell-based"}, "Mus musculus [14]": {"organism": "Mus musculus", "test": "Activation of AMPK pathway in mouse 3T3L1 cells assessed as reduction in C/EBPbeta protein expression at 2 mM after 4 hrs by Western blot analysis", "type": "cell-based"}, "3T3-L1 [15]": {"system": "3T3-L1", "test": "Lipid lowering activity in mouse 3T3L1 cells assessed as decrease in triglyceride level at 5 uM treated on day 0 to 9 starting from 2 days post confluent by oil red o-staining based assay relative to control", "type": "functional", "parameters": "scale not given: the % may be the effect or the level left"}, "3T3-L1 [16]": {"system": "3T3-L1", "test": "Lipid lowering activity in mouse 3T3L1 cells assessed as inhibition of terminal differentiation stage by measuring decrease in triglyceride level at 5 uM treated on day 6 to 9 starting from 2 days post confluent by oil red o-staining based assay relative to control", "type": "functional"}, "3T3-L1 [17]": {"system": "3T3-L1", "test": "Lipid lowering activity in mouse 3T3L1 cells assessed as decrease in triglyceride level at 5 uM treated on day 0 to 6 starting from 2 days post confluent by oil red o-staining based assay relative to control", "type": "functional", "parameters": "scale not given: the % may be the effect or the level left"}, "3T3-L1 [18]": {"system": "3T3-L1", "test": "Lipid lowering activity in mouse 3T3L1 cells assessed as inhibition of lipogenesis by measuring decrease in triglyceride level at 5 uM treated on day 3 to 6 starting from 2 days post confluent by oil red o-staining based assay relative to control", "type": "functional"}, "Mus musculus [19]": {"organism": "Mus musculus", "test": "Induction of AMPKalpha phosphorylation at Thr172 residue in mouse 3T3L1 cells measured on day 3 post treatment by Western blot analysis", "type": "cell-based"}, "3T3-L1 [20]": {"system": "3T3-L1", "test": "Cytotoxicity against mouse 3T3L1 cells assessed as decrease in cell viability up to 10 uM measured up to 72 hrs by LDH release assay", "type": "cell-based", "settings": "3t3-l1, 72 h"}, "3T3-L1 [21]": {"system": "3T3-L1", "test": "Lipid lowering activity in mouse 3T3L1 cells assessed as decrease in triglyceride level treated 2 days post confluent for 9 days by oil red o-staining based assay", "type": "functional, cell-based"}, "Mus musculus [22]": {"organism": "Mus musculus", "test": "Activation of AMPK pathway in mouse 3T3L1 cells assessed as decrease in SREBP-1c mRNA level at 1 to 10 uM measured on day 6 post treatment by RT-PCR method", "type": "cell-based"}, "3T3-L1 [23]": {"system": "3T3-L1", "test": "Cell cycle arrest in mouse 3T3L1 cells assessed as accumulation at G0/G1 phase at 1 uM after 24 hrs by propidium iodide staining based FACS analysis (reference value: 48.7%)", "type": "functional"}, "3T3-L1 [24]": {"system": "3T3-L1", "test": "Lipid lowering activity in mouse 3T3L1 cells assessed as inhibition of adipogenesis by measuring decrease in triglyceride level at 5 uM treated on day 0 to 3 starting from 2 days post confluent by oil red o-staining based assay relative to control", "type": "functional"}, "3T3-L1 [25]": {"system": "3T3-L1", "test": "Cell cycle arrest in mouse 3T3L1 cells assessed as accumulation at G0/G1 phase at 10 uM after 24 hrs by propidium iodide staining based FACS analysis (reference value: 48.7%)", "type": "functional"}, "Mus musculus [26]": {"organism": "Mus musculus", "test": "Activation of AMPK pathway in mouse 3T3L1 cells assessed as decrease in C/EBPalpha mRNA level at 1 to 10 uM measured on day 3 post treatment by RT-PCR method", "type": "cell-based"}, "Mus musculus [27]": {"organism": "Mus musculus", "test": "Induction of AMPKalpha phosphorylation at Thr172 residue in mouse 3T3L1 cells at 5 uM after 4 hrs by Western blot analysis", "type": "cell-based"}, "Mus musculus [28]": {"organism": "Mus musculus", "test": "Activation of AMPK pathway in mouse 3T3L1 cells assessed as induction of […] phosphorylation at Ser79 residue measured on day 6 post treatment by Western blot analysis", "type": "cell-based"}, "Mus musculus [29]": {"organism": "Mus musculus", "test": "Activation of AMPK pathway in mouse 3T3L1 cells assessed as reduction in C/EBPbeta protein expression at 5 uM after 4 hrs by Western blot analysis", "type": "cell-based"}, "3T3-L1 [30]": {"system": "3T3-L1", "test": "Lipid lowering activity in mouse 3T3L1 cells assessed as decrease in triglyceride level at 5 uM by oil red o-staining based assay", "type": "functional, cell-based", "settings": "TDE = time-dependent effect"}, "3T3-L1 [31]": {"system": "3T3-L1", "test": "Cell cycle arrest in mouse 3T3L1 cells assessed as decrease in S-phase at 1 to 10 uM after 24 hrs by propidium iodide staining based FACS analysis", "type": "functional"}, "Mus musculus [32]": {"organism": "Mus musculus", "test": "Activation of AMPK pathway in mouse 3T3L1 cells assessed as decrease in SCD1 mRNA level measured on day 6 post treatment by RT-PCR method", "type": "cell-based"}, "Mus musculus [33]": {"organism": "Mus musculus", "test": "Activation of AMPK pathway in mouse 3T3L1 cells assessed as reduction in C/EBPdelta protein expression at 2 mM after 4 hrs by Western blot analysis", "type": "cell-based"}, "Mus musculus [34]": {"organism": "Mus musculus", "test": "Activation of AMPK pathway in mouse 3T3L1 cells assessed as reduction in C/EBPdelta protein expression at 5 uM after 4 hrs by Western blot analysis", "type": "cell-based"}},
  "note": "Active and inactive are the calls of the source. The rule behind the calls is not given here.",
  "data": [
    {"smiles": "O=Cc1c(-c2nc3ccccc3c(=O)[nH]2)[nH]c2ccccc12", "values": [
      {"measurement": "Activity", "setting": "3T3-L1 [1]", "value": "Active"},
      {"measurement": "IC50", "setting": "HepG2 [2]", "value": "> 50", "unit": "µM"},
      {"measurement": "IC50", "setting": "3T3-L1 [3]", "value": "> 50", "unit": "µM"},
      {"measurement": "Activity", "setting": "HepG2 [4]", "value": 24.1, "unit": "%"},
      {"measurement": "solubility", "setting": "[5]", "value": "Insoluble"},
      {"measurement": "Activity", "setting": "3T3-L1 [6]", "value": 20.1, "unit": "%"}
    ]},
    {"smiles": "Fc1c(-c2nc(NCCCN3CCCC3)c3ccccc3n2)[nH]c2ccccc12", "values": [
      {"measurement": "Activity", "setting": "Mus musculus [7]", "value": "Dose-dependent effect"},
      {"measurement": "Activity", "setting": "Mus musculus [8]", "value": "Dose-dependent effect"},
      {"measurement": "Activity", "setting": "Mus musculus [9]", "value": "Dose-dependent effect"},
      {"measurement": "Activity", "setting": "Mus musculus [10]", "value": "Dose-dependent effect"},
      {"measurement": "Activity", "setting": "3T3-L1 [11]", "value": 66.1, "unit": "%"},
      {"measurement": "inhibition", "setting": "3T3-L1 [12]", "value": "Active"},
      {"measurement": "Activity", "setting": "3T3-L1 [1]", "value": "Active"},
      {"measurement": "Activity", "setting": "Mus musculus [13]", "value": "Active"},
      {"measurement": "Activity", "setting": "Mus musculus [14]", "value": "Active"},
      {"measurement": "Activity", "setting": "3T3-L1 [15]", "value": 80.5, "unit": "%"},
      {"measurement": "inhibition at 5 µM", "setting": "3T3-L1 [16]", "value": 22.1, "unit": "%"},
      {"measurement": "Activity", "setting": "3T3-L1 [17]", "value": 74.2, "unit": "%"},
      {"measurement": "inhibition at 5 µM", "setting": "3T3-L1 [18]", "value": 51.6, "unit": "%"},
      {"measurement": "Activity", "setting": "Mus musculus [19]", "value": "Active"},
      {"measurement": "Activity", "setting": "3T3-L1 [20]", "value": "Non-Toxic"},
      {"measurement": "Activity", "setting": "3T3-L1 [21]", "value": "Dose-dependent effect"},
      {"measurement": "EC50", "setting": "3T3-L1 [21]", "value": 0.24, "unit": "µM"},
      {"measurement": "IC50", "setting": "HepG2 [2]", "value": 25.1, "unit": "µM"},
      {"measurement": "Activity", "setting": "Mus musculus [22]", "value": "Active"},
      {"measurement": "IC50", "setting": "3T3-L1 [3]", "value": 37.7, "unit": "µM"},
      {"measurement": "Activity", "setting": "3T3-L1 [23]", "value": 60.8, "unit": "%"},
      {"measurement": "inhibition at 5 µM", "setting": "3T3-L1 [24]", "value": 71.1, "unit": "%"},
      {"measurement": "Activity", "setting": "3T3-L1 [25]", "value": 77.6, "unit": "%"},
      {"measurement": "Activity", "setting": "Mus musculus [26]", "value": "Active"},
      {"measurement": "Activity", "setting": "HepG2 [4]", "value": 20.8, "unit": "%"},
      {"measurement": "Activity", "setting": "Mus musculus [27]", "value": "Active"},
      {"measurement": "Activity", "setting": "Mus musculus [28]", "value": "Active"},
      {"measurement": "Activity", "setting": "Mus musculus [29]", "value": "Active"},
      {"measurement": "Activity", "setting": "3T3-L1 [30]", "value": "Tde"},
      {"measurement": "Activity", "setting": "3T3-L1 [31]", "value": "Active"},
      {"measurement": "Activity", "setting": "Mus musculus [32]", "value": "Dose-dependent effect"},
      {"measurement": "Activity", "setting": "3T3-L1 [6]", "value": 79.1, "unit": "%"},
      {"measurement": "Activity", "setting": "Mus musculus [33]", "value": "Active"},
      {"measurement": "Activity", "setting": "Mus musculus [34]", "value": "Active"}
    ]}
  ]
}
